The subject of one assay is MDA-MB-435. As to the kind of experiment: NCI 60 screen, five dose. Format: cell-based. To be noted: Homo sapiens, Melanoma, GI50 = molar concentration, read-out: Log10 GI50 (converted).
Assay [1] has as its system HCC4017 lung cancer cells. The assay is described as follows: cell cycle analysis (PI, FACS). Format: cell-based, human. To be noted: for effect on cell cycle distribution: HCC4017, FACs analysis; for subG0 population: HCC4017, even after 64h. The procedure:
For cell cycle analysis, cells were washed with PBS, fixed in 70% ethanol for 2 h, washed with PBS and resuspended in staining solution (0.1% Triton X-100, 0.2 mg/ml DNAse-free RNAse A and […]) and incubated at 37C for 15 min. Histograms were acquired on a BD FACSCalibur flow cytometer at UT Southwestern’s core facility. Apoptosis was measured using a FITC Annexin V Apoptosis Detection Kit I (BD Pharmingen) according to manufacturer’s protocol after treating cells with compounds as indicated in Figure legends.

The target of another assay is T1, recombinant HDAC6 (Homo sapiens, UniProt Q9UBN7).
T1 construct: purchased Epigenetek
T1 sequence (Q9UBN7 1-1215): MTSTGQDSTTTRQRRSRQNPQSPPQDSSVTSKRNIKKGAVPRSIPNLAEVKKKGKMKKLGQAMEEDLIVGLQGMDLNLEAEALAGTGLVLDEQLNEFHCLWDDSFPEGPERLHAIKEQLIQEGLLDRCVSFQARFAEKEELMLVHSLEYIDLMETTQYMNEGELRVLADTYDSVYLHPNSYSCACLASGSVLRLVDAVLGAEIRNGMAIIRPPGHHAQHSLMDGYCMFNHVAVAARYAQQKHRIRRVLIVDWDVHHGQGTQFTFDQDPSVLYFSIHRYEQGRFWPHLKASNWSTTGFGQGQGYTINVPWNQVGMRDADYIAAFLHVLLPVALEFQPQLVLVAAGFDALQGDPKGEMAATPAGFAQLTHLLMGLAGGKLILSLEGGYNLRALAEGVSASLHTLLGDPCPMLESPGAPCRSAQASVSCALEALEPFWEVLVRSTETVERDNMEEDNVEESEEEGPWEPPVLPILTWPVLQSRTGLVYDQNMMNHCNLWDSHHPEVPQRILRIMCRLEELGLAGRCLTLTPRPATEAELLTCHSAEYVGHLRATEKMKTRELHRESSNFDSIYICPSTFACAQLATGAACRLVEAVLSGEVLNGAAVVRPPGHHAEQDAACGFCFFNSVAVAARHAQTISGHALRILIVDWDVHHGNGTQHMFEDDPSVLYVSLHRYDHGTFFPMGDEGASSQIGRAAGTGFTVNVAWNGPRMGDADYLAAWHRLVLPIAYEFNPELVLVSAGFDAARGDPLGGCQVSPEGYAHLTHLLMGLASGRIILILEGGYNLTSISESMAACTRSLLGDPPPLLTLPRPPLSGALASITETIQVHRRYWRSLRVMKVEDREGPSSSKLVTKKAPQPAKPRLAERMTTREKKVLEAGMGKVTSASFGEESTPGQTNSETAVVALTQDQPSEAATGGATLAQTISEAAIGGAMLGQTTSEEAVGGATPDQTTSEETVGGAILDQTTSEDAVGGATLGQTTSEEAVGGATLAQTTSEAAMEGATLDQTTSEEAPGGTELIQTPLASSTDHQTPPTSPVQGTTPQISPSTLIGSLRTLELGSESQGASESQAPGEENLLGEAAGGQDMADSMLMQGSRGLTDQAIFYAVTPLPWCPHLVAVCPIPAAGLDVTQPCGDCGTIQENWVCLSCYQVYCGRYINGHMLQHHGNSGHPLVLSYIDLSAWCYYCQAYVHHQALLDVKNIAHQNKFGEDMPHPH
As to the kind of experiment: comparative HDAC inhibition assay (Millipore fluorometric kit). Format: biochemical. The procedure: For the direct comparison of HDAC1 vs. HDAC6 inhibition, HDAC activity was analyzed using the HDAC Assay Kit from Millipore (17–356). Briefly, recombinant HDAC1 or recombinant HDAC6 (both purchased from Epigenetek, Purity of HDAC1 is more than 60% and purity HDAC6 is more than 85%). was incubated with the fluorometric HDAC substrate according to the manufacturer’s protocol in the presence of DMSO vehicle or increase compound doses. In a secondary activator reaction, the fluorophore is only cleaved from the deacetylated substrate, allowing for quantification. Fluorescence was quantified on a FLUOstar-Optima or a FLUOstar Omega plate reader (BMG Biosciences).

The next assay deals with T-47D. As to the kind of experiment: NCI 60 screen, five dose. In kind it is cell-based. To be noted: Homo sapiens, T47D, Breast Cancer, GI50 = molar concentration, read-out: Log10 GI50 (converted).
The next assay deals with SW-620. As to the kind of experiment: NCI 60 screen, five dose. Format: cell-based. The settings on record: Homo sapiens, Colon Cancer, GI50 = molar concentration, read-out: Log10 GI50 (converted).
The next assay has as its system NCI-H460. As to the kind of experiment: NCI 60 screen, five dose. In kind it is cell-based. To be noted: Homo sapiens, Non-Small Cell Lung Cancer, GI50 = molar concentration, read-out: Log10 GI50 (converted).
A further assay relates to HCT-15. As to the kind of experiment: NCI 60 screen, five dose. In kind it is cell-based. The settings on record: Homo sapiens, Colon Cancer, GI50 = molar concentration, read-out: Log10 GI50 (converted).
Another assay deals with ACHN. As to the kind of experiment: NCI 60 screen, five dose. The settings on record: Homo sapiens, Renal Cancer, GI50 = molar concentration, read-out: Log10 GI50 (converted). In kind it is cell-based.
Another assay concerns LOX IMVI. The assay is described as follows: NCI 60 screen, five dose. Format: cell-based. To be noted: Homo sapiens, Melanoma, GI50 = molar concentration, read-out: Log10 GI50 (converted).
In assay [2] the test system is epigenetically silenced GFP transgene in LDR cells. As to the kind of experiment: locus derepression (LDR) assay, GFP induction. Format: cell-based. The procedure: LDR cells were maintained in DMEM with L-glutamine and high glucose, 1 mM sodium pyruvate, 0.1 mM MEM non-essential amino acids, 1% v/v penicillin-streptomycin and 10% heat inactivated FBS. Cells were seeded on glass bottom chambers at low-medium density and allowed to attach overnight. Compounds were then added for 24h at the indicated dose and cells were imaged under a fluorescent microscope equipped with a camera using a 20 or 40X objective. All images shown were exposed for identical time.

The subject of another assay is HL-60(TB). As to the kind of experiment: NCI 60 screen, five dose. The settings on record: Homo sapiens, Leukemia, GI50 = molar concentration, read-out: Log10 GI50 (converted). In kind it is cell-based.
The next assay has as its system CAKI-1. As to the kind of experiment: NCI 60 screen, five dose. In kind it is cell-based. The settings on record: Homo sapiens, Renal Cancer, GI50 = molar concentration, read-out: Log10 GI50 (converted).
Another assay concerns HOP-92. As to the kind of experiment: NCI 60 screen, five dose. In kind it is cell-based. To be noted: Homo sapiens, Non-Small Cell Lung Cancer, GI50 = molar concentration, read-out: Log10 GI50 (converted).
The test system of a further assay is CCRF-CEM. As to the kind of experiment: NCI 60 screen, five dose. In kind it is cell-based. To be noted: Homo sapiens, Leukemia, GI50 = molar concentration, read-out: Log10 GI50 (converted).
In a further assay the test system is NCI/ADR-RES. As to the kind of experiment: NCI 60 screen, five dose. In kind it is cell-based. The settings on record: Homo sapiens, Ovarian Cancer, GI50 = molar concentration, read-out: Log10 GI50 (converted).
A further assay has as its system Breast cancer cell lines. As to the kind of experiment: NCI 60 screen, five dose. Format: cell-based, human. To be noted: for GI50: Homo sapiens; for no. cell lines used for the assay/no inhibited by compound: figures in parenthesis.
Where [3] appears, read: Table 3, read-out: HDAC6 pIC50 (converted).
[4] abbreviates: recombinant HDAC6, fluorometric substrate, Table 4, read-out: HDAC6 IC50.

Like-named read-outs stand apart in the source and are kept apart here.

As to `O=C(NO)c1ccc(S(=O)(=O)N2CCN(c3nc4ccccc4o3)CC2)cc1` [Compound 9c, 4-(4-Benzoxazol-2-yl-piperazin-1-sulfonyl)-N -hydroxy-benzamid], the GI50 in the assay with MDA-MB-435 was 3.63 µM; with T-47D, 5.75 µM; in the assay with SW-620, 4.37 µM; with NCI-H460, 10.7 µM; with HCT-15 it was 18.2 µM; in the assay on ACHN, 21.4 µM. Besides, the GI50 in the assay on LOX IMVI is 10.7 µM; in the assay on HL-60(TB), 5.89 µM; with CAKI-1, 3.39 µM; with HOP-92 it was 6.03 µM; in the assay with CCRF-CEM, 1.78 µM; in the assay with NCI/ADR-RES, 21.9 µM. In the assay with Breast cancer cell lines, this compound gave a concentration for 50% growth inhibition (GI50) of 8.71 µM. In assay [1], the “effect on cell cycle distribution” value is reported as “affect cell cycle distribution after just 18h of treatment”. Moreover, the “subG0 population” value in assay [1] was “no subG0 population was observed”. The IC50 on recombinant HDAC6 (setting [3]) was 0.2 µM; on recombinant HDAC6 (setting [4]), 0.22 ± 0.04 µM. Further, the “Selectivity Index HDAC1/HDAC6” value on recombinant HDAC6 (Table 4) is 4.3. In addition, the “GFP induction / activity in the LDR assay” value in assay [2] is on record as “high level of GFP induction”. In the assay on Breast cancer cell lines, the “no. cell lines used for the assay/no inhibited by compound” value was 2/7.
As for `O=C(NO)c1ccc(S(=O)(=O)N2CCN(c3nc4ccccc4s3)CC2)cc1` [Compound 9d, 4-(4-Benzothiazol-2-yl-piperazin-1-sulfonyl)-N -hydroxy-benzamid], the GI50 was 1.86 µM in the assay on MDA-MB-435; 3.89 µM in the assay with T-47D; 1.66 µM in the assay with SW-620; 5.13 µM in the assay on NCI-H460; 3.98 µM in the assay on HCT-15; 4.57 µM in the assay on ACHN. Besides, the GI50 is 2.51 µM in the assay with LOX IMVI; 2.57 µM in the assay on HL-60(TB); 2.34 µM in the assay on CAKI-1; 2.57 µM with HOP-92; 1.82 µM with CCRF-CEM; 6.61 µM in the assay with NCI/ADR-RES. The same compound yielded a GI50 with Breast cancer cell lines of 3.88 µM. Moreover, the IC50 is 0.1 µM on recombinant HDAC6 (setting [3]) and 0.13 ± 0.02 µM at recombinant HDAC6 (setting [4]). The “GFP induction / activity in the LDR assay” value in assay [2] was “high level of GFP induction”. For the same compound, in the assay with Breast cancer cell lines, the “no. cell lines used for the assay/no inhibited by compound” value is recorded as 4/7.
`Cn1c(N2CCN(S(=O)(=O)c3ccc(C(=O)NO)cc3)CC2)nc2ccccc21` [Compound 9b, 4-[4-(1-methylbenzimidazol-2-yl)piperazin-1-yl]sulfonylbenzenecarbohydroxamic acid]: in assay [1], the “effect on cell cycle distribution” value is “affect cell cycle distribution after just 18h of treatment” and the “subG0 population” value is “no subG0 population was observed”. Also, at recombinant HDAC6 (setting [3]), the IC50 is 0.1 µM. For the same compound, at recombinant HDAC6 (Table 4), the “Selectivity Index HDAC1/HDAC6” value turned out to be 28.4. The IC50 at recombinant HDAC6 (setting [4]) turned out to be 0.13 ± 0.07 µM. Further, the “activation of the silenced GFP gene (GFP expression)” value in [2] (compound at 20μM, fluorescence microscopy) is recorded as “robust GFP expression”.

The term GI50 denotes the concentration giving 50% growth inhibition.

(Values after paper PMC4689404, “2-Benzazolyl-4-Piperazin-1-Ylsulfonylbenzenecarbohydroxamic Acids as Novel Selective Histone Deacetylase-6 Inhibitors with Antiproliferative Activity” (PLoS ONE, 2015).)
